Data as given in the pKa sets of Baltruschat and Czodrowski (2020).

details: acidic group

SMILES	pKa
COc1cccc(C=O)c1O	7.91
O=c1[nH]cnc2[nH]ncc12	9.38
S=C(Nc1ccc(Br)cc1)c1ccc(Cl)cc1	10.2
CC1(C)NC(=S)NC1=S	7.65
Nc1c2ccccc2[nH+]c2c(O)cccc12	7.05
Cc1c[nH]cc1C(=O)O	5.65
O=Cc1ccccc1C(=O)O	4.56
C[C@H](CCC(=O)O)[C@H]1CC[C@H]2[C@@H]3[C@@H](O)C[C@@H]4C[C@H](O)CC[C@]4(C)[C@H]3CC[C@]12C	5.08
CCOC(=O)Cc1nc2ccccc2[nH]1	13.1
Cc1ccc(C(=O)O)o1	3.42
O=C1/C(=N\O)C=C(S(=O)(=O)[O-])c2cn[nH]c21	6.35
Cc1nnn(CC(=O)O)n1	2.23
O=C(O)c1ccc(Br)c([N+](=O)[O-])c1	3.24
COc1ccccc1C(=O)O	4.05
O=P(O)(C1CCCCC1)C1CCCCC1	3.47
CC(=O)S	3.71
COC(=O)CC(=N/[O-])/C(C)=N/O	11.6
Cc1cc(=O)oc2cc(O)ccc12	7.8
CCC[NH2+]C(C)C(=O)O (stereo unspecified)	2.21
CCOC(=O)c1cccc(O)c1	9.05
O=C(O)c1coc2ccccc12	4.18
C=C=C(C)C(C)(C)C(=O)O	4.55

SMILES	pKa
C[NH+](C)CC[SeH]	4.74
Brc1nnn[nH]1	2.13
Nc1nc(N)c2[nH]cnc2n1	10.8
NCC(N)=O	8.05
Oc1ccc(O)c2ncccc12	9.3
CC1(C)CCC(C(=O)O)=[N+]1[O-]	2.8
C=CCCC(=O)O	4.68
Cn1c(=O)[nH]c2nc[nH]c2c1=O	7.88
CCc1c(-c2ccccc2)nn(C2CC[NH+](C)CC2)c1O	5.9
O=[N+]([O-])c1cc(Cl)ccc1O	3.5
CC(c1ccc([N+](=O)[O-])cc1)[N+](=O)[O-] (stereo unspecified)	6.51
O=C(O)c1cc2ccccc2cc1O	2.71
CC(C)c1cccc(C(=O)O)c1	4.27
Nc1nc[nH+]c(O)c1N	3.57
C=C(C)/C=C(\O)C=C(C)C	10.8
Cc1cc(I)c(O)c(I)c1	6
COCc1ccc(C(=O)O)cc1	4.18
N#CC(C#N)=C(C(C#N)C#N)C(C#N)C#N	2.25
CC(O)(C(=O)O)c1ccccc1 (stereo unspecified)	3.53
C/C(=N/O)c1ccccc1	11.5
CN(C)c1ccc(C(=O)O)cc1	4.96
O=P1(O)CCCCC1	2.73

SMILES	pKa
C[NH+]1[C@H]2CC=C(C(=O)O)[C@@H]1CC2	3.93
O=C(O)C1c2ccccc2Oc2ccccc21	3.89
[NH3+]C/C=C/C(=O)O	3.55
Cc1ccccc1NC(=S)c1ccccc1	10.2
CCCCCCCCc1c(-c2ccccc2)nn(-c2ccccc2)c1O	7.5
CC/C=C/Cc1[nH+]ccn1[C@H](C(=O)O)C(C)(C)S	2
Cc1ccc(NC(=S)c2ccc(Cl)cc2)cc1	11.2
OCc1cccc(O)c1	9.83
O=C1O[C@@H]([C@@H](O)CO)C([O-])=C1O	11.3
CC1(C)C=CC(C)(c2cc3ccc(=O)oc3cc2O)CC1 (stereo unspecified)	8.12
CNc1ncnc2nc[nH]c12	10
CC(=O)N1CSC[C@H]1C(=O)O	2.94
Cc1cccc(CCCCCCCC(=O)O)[nH+]1	4.6
CCOc1cccc(C(=O)O)c1C	3.73
OCC[n+]1cc(Br)c2ccccc2c1	13.1
CC(=O)Oc1cccc2cccc(O)c12	9.69
N#CC(C#N)=C(C#N)NC(C#N)=C(C#N)C#N	2.1
S=C(NC(=S)c1ccccc1)Nc1ccccc1	10.7
CCCc1c(C)nn(-c2ccccc2)c1O	11.4
Cc1cc(N)ccc1S(=O)(=O)Nc1nccs1	7.3
O=C(O)CCBr	3.86
Cc1cccc(C)c1NN=C(C#N)C#N	6.6

SMILES	pKa
O=C1CCc2cc(I)ccc2C1	12.4
OCc1ccc(O)c(CO)c1	9.77
O=C(O)C1CCCCn2nnnc21 (stereo unspecified)	3.4
CC(C)Oc1ccccc1C(=O)O	4.24
O=[N+]([O-])c1cc(C[NH+]2CCOCC2)c(O)c2ccccc12	3
O=[PH](O)C([NH2+]Cc1cccc[nH+]1)c1ccccc1O (stereo unspecified)	2.4
COc1ccc(-c2nnn[nH]2)cc1	4.23
O=C(O)c1ccc(Br)cc1	3.99
Cc1ccc(C)c(C(=O)C(=O)O)c1	1.45
CC[C@@H]1OC(=O)[C@@H](C)[C@H](O)[C@@H](C)[C@H](O[C@H]2O[C@@H](C)C[C@@H]([N+](C)(C)O)[C@@H]2O)[C@]2(C)C[C@H](C)C3(O[C@]1(C)C=C3C)O2	4.3
S=C(Nc1ccc(Br)cc1)c1cccc(Br)c1	9.96
O=N/C(Cc1ccccc1)=N\O	5.3
Cc1cnc(C)c(O)c1C=O	8.08
CN(C)Cc1ccccc1O	11
COc1cccc(NS(=O)(=O)c2ccccc2)c1	7.95
Sc1cccc[nH+]1	-1.22
Cc1cc(O)c(C(C)C)cc1Nc1ccc([O-])cc1	10.8
CC(=O)c1ccc(C(=O)O)s1	3
O=C(O)c1ccc(/N=C/c2ccccc2)cc1	4.47

same assay, conditions: basic group

SMILES	pKa
Cc1ccc(S(=O)(=O)N2CCNCC2)cc1	7.41
